# “Also recorded” adds a separate entry of the source. Positions of bridges follow the written chain, without caps; N, C: chain ends. Residues, ends and D or L forms follow the SMILES beside them.
# Columns and labels:
# HIV-1 NL4-3 DTV = settings: read-out: IC50 DTV, P4-CCR5 cells, peptide 2 h before infection, readout three days after infection
# In short: (§1)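 P4-CCR5 cells (CD4, CCR5, CXCR4, HIV-1 promoter-driven β-galactosidase) pretreated 2 h with peptide, then infected with virus containing 1 ng p24 antigen and incubated overnight. Cells washed and cultured without peptide; three days post-infection infectivity read by chemiluminescent β-galactosidase assay, in quintuplicate.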
# X4-tropic HIV-1 NL4-3 = settings: read-out: IC50 NL4-3; P4-CCR5 cells, HIV-1 NL4-3, peptide 2 h before infection, readout three days after infection
# In short: as §1
# [1] = system: human monocytic THP-1 cells; assay: Cytotoxicity on human cells, WST-1 assay; settings: 24 hours, 30, 100, 300 and 1000 μg/mL
# Protocol: The cytotoxicity of peptides of the invention was tested by evaluating the viability of human monocytic THP-1 cells. Cytotoxic effects of the peptides were tested by their influence on metabolic activity by means of the WST-1 assay (Roche Diagnostics, Germany). THP-1 cells were incubated with test peptides in a 96-well plate (approx. 25,000 cells per well) for 24 hours in RPMI-1640 medium containing 25 mM L-glutamine and 10 volume % fetal calf serum at 37° C. in an atmosphere with 5 volume % CO2. Ten μl of a WST-1 solution was added to each cavity, and incubation of THP-1 cells was allowed for 2 further hours at corresponding conditions. Metabolically active THP-1 cells reduce WST-1, a light red tetrazolium salt, yielding a soluble yellow formazan salt. The amount of reduced WST-1 correlates directly to the number of living cells, and is measured photometrically at a wavelength of λ=450 nm using a microtiter plate reader (reference wavelength is 630 nm). As a positive control, the known cytotoxic substance cycloheximide was used at a concentration of 50 μg/ml; the cytotoxicity of cycloheximide was set to 100%. […] The cytotoxicity of VIRIP peptides was calculated using the formula Viability [%]=[A450 nm (peptide)−A450 nm (cycloheximide)]/[A450 nm (negative control)−A450 nm (cycloheximide)]*100 and was correlated to the averaged viability of untreated THP-1 cells. […]
# [2] = molecular target: T1, synthetic fusion peptide of HIV gp41 (Human immunodeficiency virus type 1 group M subtype B, UniProt P04578); assay: Inhibition of fusion peptide-induced hemolysis; type: cell-based; settings: peptides at 1000, 100 and 10 μM preincubated with 100 μM fusion peptide, human erythrocytes, hemoglobin release
# T1 construct: The fusion peptide is the very amino-terminal part of gp41 consisting of about 30 amino acid residues
# T1 sequence (P04578 512-532): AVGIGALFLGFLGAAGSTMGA
# Protocol: The synthetic fusion peptide of HIV gp41 causes concentration-dependent hemolysis which can be measured by hemoglobin released by erythrocytes.
# Peptides and any other substance binding to the fusion peptide impair its potency to lyse erythrocytes by changing its structural properties. The inhibition of fusion peptide induced hemolysis was tested as follows: Blood from healthy donors was collected in citrate monovettes and the erythrocytes were extracted by a standard centrifugation and washing protocol known to the skilled person. The final erythrocyte-containing pellett was diluted 1:100 with phosphate-saline buffer. To the peptides (10, 100, or 1000 equivalents) 20 μl of a 100 μM fusion peptide solution in 10% DMSO were added and the solution was diluted to 100 μl with phosphate-buffered saline. A 60 min incubation at 37° C. was carried out. After the preincubation the samples were transferred to 96-well plates and 100 μl of the erythrocyte suspension were added and incubated for 60 min at 37° C. […] The 96-well plate is centrifuged 5 min at 2800 rpm and of the supernatant fluid 150 μl were transferred to a flat-bottom microtiter plate, and the absorbance was measured at 450 nm. The percentage hemolysis was calculated by: [(A450 of the peptide treated sample—A450 of buffer treated sample)/(A450 of Tween-20 treated sample—A450 of buffer treated sample)]×100%.
Structure (SMILES),IC50 (HIV-1 NL4-3 DTV) [µM],IC50 (X4-tropic HIV-1 NL4-3) [µM],cytotoxic effect on THP-1 cells [1],inhibition of fusion peptide-induced hemolysis [2]
CC[C@H](C)[C@H](NC(=O)[C@H](C)NC(=O)[C@H](CCC(=O)O)NC(=O)[C@@H](N)CC(C)C)C(=O)N1CCC[C@H]1C(=O)N[C@H]1CSSC[C@@H](C(=O)N[C@H](C(=O)N[C@@H](Cc2ccccc2)C(=O)N[C@@H](Cc2ccccc2)C(=O)N[C@@H](CC(N)=O)C(=O)N[C@@H](CCCCN)C(=O)N2CCC[C@H]2C(=O)N[C@@H](Cc2ccccc2)C(=O)N[C@H](C(=O)N[C@@H](Cc2ccccc2)C(=O)O)C(C)C)C(C)C)NC(=O)[C@@H]2CCCN2C(=O)[C@@H]2CCCN2C(=O)[C@H]([C@@H](C)CC)NC(=O)[C@H](CO)NC1=O [VIR-164] (H-LEAIPCSIPPCVFFNKPFVF-OH; disulfide 6-11),0.37,0.34,free of any cytotoxic effect; also recorded: did not exhibit a cytotoxic effect,Dose dependent inhibition
CC[C@H](C)[C@H](NC(=O)[C@H](C)NC(=O)[C@H](CCC(=O)O)NC(=O)[C@@H](N)CC(C)C)C(=O)N1CCC[C@H]1C(=O)N[C@H]1CSSC[C@@H](C(=O)N[C@@H](Cc2ccccc2)C(=O)N[C@@H](C)C(=O)N[C@@H](Cc2ccccc2)C(=O)N[C@@H](CC(N)=O)C(=O)N[C@@H](CCCCN)C(=O)N2CCC[C@H]2C(=O)N[C@@H](Cc2ccccc2)C(=O)N[C@H](C(=O)N[C@@H](Cc2ccccc2)C(=O)O)C(C)C)NC(=O)[C@@H]2CCCN2C(=O)[C@@H]2CCCN2C(=O)[C@H]([C@@H](C)CC)NC(=O)[C@H](CO)NC1=O [VIR-165],0.14,,free of any cytotoxic effect; also recorded: did not exhibit a cytotoxic effect,Dose dependent inhibition
